# Source: ChEMBL document CHEMBL1135868, “Small ligands interacting with the phosphotyrosine binding pocket of the Src SH2 protein” (Bioorg Med Chem Lett, 2002)
# pIC50: −log10 of the molar value.
# Molecular target: Proto-oncogene tyrosine-protein kinase Src (Homo sapiens, UniProt P12931)
# Assay: The compound was evaluated for its binding affinity towards phosphotyrosine binding pocket of Src protein tyrosine kinase SH2 domain
# Proto-oncogene tyrosine-protein kinase Src, sequence (P12931 2-536 limits assumed): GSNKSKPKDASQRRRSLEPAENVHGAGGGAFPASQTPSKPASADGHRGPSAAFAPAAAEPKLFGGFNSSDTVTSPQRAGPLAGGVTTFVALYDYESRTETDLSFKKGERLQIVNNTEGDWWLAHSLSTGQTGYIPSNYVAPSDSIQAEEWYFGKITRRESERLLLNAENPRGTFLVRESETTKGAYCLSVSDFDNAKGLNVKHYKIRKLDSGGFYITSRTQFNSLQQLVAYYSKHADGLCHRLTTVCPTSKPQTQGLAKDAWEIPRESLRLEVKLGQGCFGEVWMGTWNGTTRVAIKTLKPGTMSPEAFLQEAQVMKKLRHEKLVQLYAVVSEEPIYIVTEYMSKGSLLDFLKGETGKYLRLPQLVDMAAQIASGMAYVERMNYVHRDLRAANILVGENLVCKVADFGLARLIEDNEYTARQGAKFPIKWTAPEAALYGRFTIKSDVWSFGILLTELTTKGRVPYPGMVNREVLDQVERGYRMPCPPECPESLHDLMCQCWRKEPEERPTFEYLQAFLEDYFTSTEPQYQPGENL
row,Compound,pIC50
1,COc1ccccc1C(O)P(=O)(O)O (stereo not drawn),< 2.00
2,O=Cc1cccc(OP(=O)(O)O)c1,2.62
3,COc1cc(NC(=O)P(=O)(O)O)cc(OC)c1OC,2.68
4,O=[N+]([O-])c1ccc(OP(=O)(O)O)cc1 [p-NITROPHENYLPHOSPHATE],3.00
5,O=P(O)(O)Oc1ccccc1 [PHENYL DIHYDROGEN PHOSPHATE],2.60
6,COc1ccc(OP(=O)(O)O)cc1,2.40
7,O=C(O)c1ccccc1OP(=O)(O)O [FOSFOSAL],2.70
8,COC(=O)c1cc2ccccc2cc1OP(=O)(O)O,2.49
9,O=P(O)(O)Oc1cccc2ccccc12,3.00
10,O=Cc1cccc(C=O)c1OP(=O)(O)O,3.30
11,O=P(O)(O)Oc1ccc2ccccc2c1,3.00
12,CC(C)c1ccc(C(O)P(=O)(O)O)cc1 (stereo not drawn),< 2.00
13,CC(=O)c1ccc2ccccc2c1OP(=O)(O)O,2.46
14,CC(C)(C)c1ccc(OP(=O)(O)O)cc1,2.40
15,CCCOc1ccc(C(O)P(=O)(O)O)cc1 (stereo not drawn),2.62
16,O=P(O)(O)Oc1ccccc1Cl,2.46
17,COC(=O)c1cccc(OP(=O)(O)O)c1,2.40
18,COC(=O)c1ccc(OP(=O)(O)O)cc1,2.40
19,O=Cc1ccccc1OP(=O)(O)O,3.70

row,Compound,pIC50
1,Cc1ccc(OP(=O)(O)O)cc1,2.70
2,O=P(O)(O)C(O)c1ccccc1 (stereo not drawn) [ALPHA HYDROXY BENZYLPHOSPHONATE],< 2.00
3,O=P(O)(O)C(O)c1ccc2ccccc2c1 (stereo not drawn),2.36
4,COP(=O)(O)Oc1ccccc1C=O,2.48
5,O=C(NCc1ccccc1)P(=O)(O)O [(BENZYLAMINO)CARBONYLPHOSPHONIC ACID],2.36
6,O=P(O)(O)Oc1cccc2cccnc12,< 2.00
7,O=C(Nc1ccc(OCc2ccccc2)cc1)P(=O)(O)O,3.10
8,Cc1cccc(OP(=O)(O)O)c1,2.40
9,CCOC(=O)c1ccc(NC(=O)P(=O)(O)O)cc1,2.44
10,Nc1ccc(OP(=O)(O)O)cc1,3.22
11,CC(C)OP(=O)(O)Oc1ccccc1C=O,2.68
12,O=C(NCCc1ccccc1)P(=O)(O)O [PHENETHYLCARBAMOYLPHOSPHONIC ACID],< 2.30
13,CCc1ccc(NC(=O)P(=O)(O)OCc2ccccc2)cc1,< 2.30
14,O=P(O)(O)C(O)c1ccc(-c2ccccc2)cc1 (stereo not drawn),< 2.00
15,O=P(O)(O)Oc1ccc(SC(F)(F)F)cc1,2.92
16,O=C(Nc1ccccc1OC(F)(F)F)P(=O)(O)O,2.40
17,Cc1cccc(C)c1OP(=O)(O)O,< 2.00
18,O=P(O)(O)C(O)C1CCCCC1 (stereo not drawn),< 2.00
19,CCCCOc1ccc(NC(=O)P(=O)(O)O)cc1,2.41
